# Experimental data: patent EP0390602A1, “Neurotrophic peptides” (SUMITOMO PHARMACEUTICALS COMPANY, LIMITED, priority 1989, dated 1990)
# Several values for one entry are separate records, joined by “and”; a condition that tells them apart may be missing. Equal entries are not always repeated. Where no end group is shown, it is not given here.
# System: culture of rat medial septum nucleous
# Test: Enhancing effect on acetylcholine synthesis in culture of rat medial septum nucleus (method of Ojika et al.)
# Format: cell-based
# Settings: for Ash synthesis (%): Table 4, Concentration 1 x 10⁻⁸, control value as 100%, several single values per cell
# Procedure: The neurotrophic peptide and its derivative of the present invention can regulate differentiation and maturation of neuronal cells. That is, the neurotrophic peptide and its derivative accelerate the acetylcholine synthesis in the tissue of medial septum nucleous which is rich in cholinergic neuron. The biological activity can be determined by the method of Ojika, K., et al. [Ojika, K., et al., Japanese Journal of Psycopharmacology, 7, 447-451, (1987)].
# The peptides were assayed for a biological activity in accordance with the method of Ojika et al. [Japanese Journal of Psycopharmacology, 7, 447-451 (1987)]. Namely, medial septum nucleous removed from rat embryonal brain (16 day embryo) is cut to small pieces, then the pieces were cultured in the Bottenstein's modified N₂ medium containing 1% FCS of saturation concentration, in Falcon's 35 mm plastic culture dish with 7% CO₂ mixed air, at 36°C. The neurotrophic peptide or its derivative was added to the cultures at initial day. In a control group, no peptide is added. The neurotrophic peptide may be added to the culture at 3 days after the initial day. After 6 days culture, an acetylcholine synthesis activity of cultured tissue was assayed to determine the biological activity of the peptide. The acetylcholine synthesis activity was assayed as follows.
# A cultured tissue was pre-incubated in high potasium Tyrode solution buffered with tris-HCl (pH 7.4) containing 98 mM of Nacl and 55 mM of Kcl , then incubated in a buffered solution containing 100 nM [³H] choline chloride (15 Ci/mmol) at 37°C for 30 minutes. After washing out of free [³H] choline, the tissue was dissolved in 1 N formic acid/acetone (15 : 85) solution. Free [³H] choline was converted to phosphocholine by choline kinase (0.1 unit/ml) and [³H] acetylcholine was extracted with tetraphenyl boron (5 mg/ml acetonitrile) to determine the acetylcholine synthesis activity. The activity of cultured tissue for synthesis of acetylcholine was defined as an amount of synthesized acetylcholine per piece of cultured tissue.
Substance,Ash synthesis (%),"Ach synthesis activity (Table 3, 2.5 pg/ml, 6 days culture, average value in triplet assay, Control 7.1 ± 1.1)",acetylcholine synthesis activity as compared with control culture (concentration of 2.5 pg/ml)
"ISQWAGPL [HCNP(4-11)OH, Ile-Ser-Gln-Trp-Ala-Gly-Pro-Leu]",160% and 139%,,
DISQWAG-NH2 [HCNP(3-9)NH₂],224% and 138%,,
"H-AADISQWAGPL-OH [f-HCNP, H-Ala-Ala-Asp-Ile-Ser-Gln-Trp-Ala-Gly-Pro-Leu-OH]",,11.3 ± 0.8 fmol/specimen,159%
Ac-AADISQWAG-NH2 [Ac-HCNP(1-9)NH₂],227% and 216%,,
